Measurements reported in patent US10682311B2, “Intranasal dexmedetomidine compositions and methods of use thereof” (BAUDAX BIO, INC., priority 2011, dated 2020).

Test: clinical
Details: human, in vivo, 35 ug
Description: This was a Phase 1, open-label, two period, repeated dose study in healthy subjects to investigate the safety, tolerability, and pharmacokinetics of intranasal dexmedetomidine. A total of 12 subjects (6 male and 6 female) were planned and enrolled. Healthy subjects between the ages of 18 and 50 years, inclusive, were screened for participation at one study site in the United States within 28 days before study drug administration. Medical history, physical examination, baseline laboratory testing, 12 lead electrocardiogram (ECG), pregnancy testing, vital sign measurements, and informed consent were completed during the screening visit.
During Period 1, subjects received two doses of study medication, separated by six hours. During Period 2, study participants received seven doses of study medication administered at six hour intervals. Study Periods were separated by not less than 24 hours between the last dose in Period 1 and the first dose in Period 2.
Serial blood samples were collected at defined intervals during each study period in order to evaluate the pharmacokinetic properties of intranasally administered dexmedetomidine, and its metabolite. Whole blood was collected in 6 mL evacuated collection tubes treated with K2EDTA.
Plasma samples were to be collected within ±2 minutes of the scheduled post-dose time through 60 minutes after dosing, samples collected 75 minutes to 6 hours after dosing were able to be collected within ±5 minutes, and samples collected at and beyond 12 hours after dosing were able to be collected within ±15 minutes of scheduled post-dose time. Actual times were to be recorded for all events, and any deviation outside the specified ranges were required to be clearly documented in the subject's study records.
Immediately after the collection of each sample, the collection tube was to be gently inverted and then placed in wet ice. Within 30 minutes of withdrawal, the tubes were centrifuged at about 2,000×gravity for 10-15 minutes to separate the cells from the plasma. No aids for separation were to be used. Two aliquots (≥0.5 mL each) of plasma were transferred from each sample with clean pipettes and placed in 2 polypropylene storage tubes in equal volumes. The storage tubes were labeled with the following information: protocol number, subject number, study day and relative time of sample (e.g., Period 1, Dose 1, 10 Minutes after dosing), and biologic matrix to be analyzed (e.g., plasma). Within 60 minutes of the collection time, the storage tubes were to be placed into a freezer at −20° C. or below; they remained in the freezer until shipment for analysis.
For pharmacokinetic analyses in Period 1, up to 12 blood samples were collected from each subject prior to and following administration of each study dose. These were collected at predose (Time 0) and at the following approximate times after each dose of study medication: 10, 20, 30, 45, 60, and 90 minutes and 2 and 4 hours; additional blood samples were collected at 6, 12 and 18 hours after Dose 2. In Period 2, up to 13 blood samples were collected from each subject prior to and following administration of Dose 1 and Dose 7. These were collected at predose (Time 0) and at the following approximate times after dosing with study medication: 10, 20, 30, 45, 60, and 90 minutes and 2 and 4 hours; additional blood samples were collected at 6, 12, 18 and 24 hours after Dose 7. Blood samples for Dose 2 through Dose 6 were collected at predose (Time 0) only. […]

Question: Which AUC(0-t) (both, AUC0-6) does the source give for `Cc1cccc([C@H](C)c2cnc[nH]2)c1C` [Dexmedetomidine, 5-[(1S)-1-(2,3-dimethylphenyl)ethyl]-1H-imidazole] here?
Answer: 0.39 ng·h/mL

Question: What about the AUC(0-t) (both, AUClast) of the same compound?
Answer: 0.38 ng·h/mL

Question: What about the Cmax (both, Cmax) of the same compound?
Answer: 0.09 ng/mL

Question: And the Tmax (both, Tmax)?
Answer: 1.26 h

Question: What about the “accumulation (AUC for Dose 1 compared to Dose 7)” value (inhaled or intranasal) of the same compound?
Answer: little evidence of accumulation
